Reference: a melting point compilation (Tetko et al.; mined from patent text by program, amines drawn as free bases though some values may be those of a salt)

melting point [°C]	SMILES
32 to 34	C#CCOc1ccc(C)nc1
90.5 to 91.5	CCC(O)CN1CCC(C)C(c2ccc(Cl)cc2)=N1 (stereo unspecified)
130 to 132	CC1(C)CCC(Cc2ccc(Cl)cc2)C1(O)Cn1ccnc1 (stereo unspecified)
71 to 72	COC(=O)CCc1oc(Cl)nc1-c1ccc(Cl)cc1
191 to 192	CC(=O)Oc1c(C)c(C)c2c(c1C)CCC(C)(C(=O)N1CCN(c3cc(N4CCCC4)nc(N4CCCC4)n3)CC1)O2 (stereo unspecified)
190 to 193	CC[C@H](C)CNC(=O)[C@@H](C[C@H](O)[C@H](CC1CCCCC1)NC(=O)[C@H](Cc1cscn1)NC(=O)OC(C)(C)C)C(C)(C)O
118 to 119	CC(=O)OCC1OC(OS(C)(=O)=S)C(OC(C)=O)C(OC(C)=O)C1OC(C)=O (stereo unspecified)
228 to 230	Cc1nc2c(N)nc3cccnc3c2n1CC(C)C
59 to 61	C=C[C@H](O)[C@@H](N)CC1CCCCC1
100 to 102	O=C(C=Cc1cccnc1)NCCCCC1CCN(C(=O)c2ccccc2)CC1
170 to 172	CCCCOc1cc(C(=O)O)cc(N)c1C(=O)c1ccc(C)cc1
104 to 108	O=[N+]([O-])c1cccc2c1COC2
133 to 134	CCCc1c(OCCCOc2ccc(C(=O)NCCCCc3cccnc3)cc2)ccc(C(C)=O)c1O
223 to 225	COc1ccc2c(c1)Sc1c(cc(OC)c(OC)c1Br)N2
76 to 80	CC(C)(C)c1cc(C[C@@H]2N[C@@H](c3ccccc3)[C@@H](c3ccccc3)OC2=O)ccc1O
148 to 150	COCCOc1nc2cc(-c3ccc(Cl)cc3)nnc2c2ccccc12
167 to 169	CCn1cnc2c(cnc3c2cnn3CC)c1=O
102 to 104	c1ccc2c(Cn3cncn3)noc2c1
164 to 165	CC(=O)c1ccc(NC(=O)NCC2(c3ccccc3)CCCCC2)cc1

melting point [°C]	SMILES
160 to 162	N#Cc1ccccc1OC(=O)CCC1CCN(C(=N)N)CC1
143 to 145	CC(=O)C(=NNc1ccccc1)C(=O)N(C(C)C)C(C)C
158 to 160	Cc1cccc2c1C=Cc1ccccc1C2Cl (stereo unspecified)
169 to 170	O=C(O)COc1ccc2c(c1)-c1nc(S(=O)(=O)C(c3ccccc3)c3ccccc3)sc1CC2
92 to 95	CCCCCCCCCCCCCCCCCCOc1cc(OCCCOc2ccc(O)cc2)cc(C(=O)O)c1
166 to 168	COC(=O)C(=CNc1ccc(F)cc1)C(=O)C=Cc1ccc(Cl)cc1
100 to 102	O=C1Cc2cccc(Oc3ccc(Cl)cc3)c2O1
156 to 157	CCC1COc2c(Cc3ccc(C(C)C)cc3)c(C)c(NC(=O)CC(C)(C)C)c(C)c21 (stereo unspecified)
211	CS(=O)(=O)C(=C1CN(C(c2ccccc2)c2ccccc2)C1)c1ccc(O)cc1
288 to 290	O=C1c2cc(Br)ccc2-n2c1nc1ccccc1c2=O
160 to 162	CCOC(=O)c1[nH]c2ccc(Cl)cc2c1Sc1ccccc1
164 to 168	O=C(SCC(=O)N1c2ccccc2CCC1C(=O)O)c1ccccc1 (stereo unspecified)
147 to 148	N#CC(=NO)c1cccc(C(=O)c2ccccc2)c1
151 to 152	Nc1ccccc1Sc1ccc([N+](=O)[O-])cc1[N+](=O)[O-]
250	Cc1cc(C)c2ccc(N3C(=O)c4nccnc4C3=O)nc2n1
95 to 97	C=C(C)C(=O)Oc1ccc(NS(C)(=O)=O)c(C)c1
135 to 138	Nc1nc(NCCC2=CCCCC2)nc2c1ncn2C1OC(CO)C(O)C1O (stereo unspecified)
156	Cc1cc(NC(=O)Nc2cccc3c2C2CCCCN2C3=O)no1 (stereo unspecified)

Second part, the compound before the results:

SMILES	melting point [°C]
CCOC(=O)C1=Cc2cccc(/C=C/C(=O)O)c2OCC1	166 to 168
Cc1noc(NS(=O)(=O)C23CSc4cccc(c42)OCO3)c1C (stereo unspecified)	135 to 137
COC(=O)C(=CN(C)C)N(C)c1cc(-c2ccc(Cl)c(Cl)c2)n(C)n1	113 to 114
CC(C)CC1(C)C(=O)NCCN1Cc1ccccc1 (stereo unspecified)	158 to 161
CC(C)SSCC12CCC(O)CC1=CCC1C3CCC(=O)C3(C)CCC12 (stereo unspecified)	168 to 169
CCOP(=O)(CC(=O)Nc1cc2c(Nc3ccc(Cl)c(Br)c3)ncnc2cn1)OCC	113 to 116
O=[N+]([O-])c1nccn1C1CCCO1 (stereo unspecified)	91
CC(C)CC(=O)Nc1ccc2oc3c(c2c1)CCCCCC3	154 to 155
Cc1c(F)c(F)c(F)c2c1c(=O)c(C(=O)O)cn2-c1ccc(O)cc1	287 to 288
CC(=O)N[C@@H](C)c1ccc(CCl)cc1	114 to 116
CCCc1n[nH]c(C(N)=O)c1[N+](=O)[O-]	197 to 199
COC(=O)C=Cc1ccc2ccccc2n1	85 to 86
CC(Oc1ccc(-c2cc(C(F)(F)F)cc(S(N)(=O)=O)c2)cc1)C(O)CCc1cccnc1 (stereo unspecified)	57 to 59
CCOc1ccc(CC2CCN(CCCCNC(=O)c3ccc(-c4ccc(C(F)(F)F)cc4)cc3)CC2)c(OCC)c1	136 to 137
N#Cc1ccc2c(c1)C(=O)c1ccccc1CN2	235 to 236
N#Cc1c(Nc2cccc(Cl)c2)n[nH]c1N	195 to 200
OC1(CCc2ccccc2)CCOCC1	74 to 75
CC(C)NC(=O)c1ccccc1F	76 to 78
CCC(C)(C)c1ccc(Oc2ccc(C(F)(F)F)cc2NC(=O)Nc2cc(C(F)(F)F)cc(C(F)(F)F)c2)c(C(=O)O)c1	238 to 240
CCOC(=O)C1=C(COCc2nnn(CCNc3nc(N)n[nH]3)n2)NC(C)=C(C(=O)OC)C1c1cccc(Cl)c1Cl (stereo unspecified)	85
COc1ccc(Nc2cc(-c3ccccc3)nc(NC3CCC(O)CC3)n2)cc1Cl (stereo unspecified)	293 to 295
COc1cc(C(O)CN2CCC(Cc3ccccc3)CC2)on1 (stereo unspecified)	134 to 137

SMILES	melting point [°C]
COc1cc(C(C)C)c2c(c1)S(=O)(=O)N(COc1cc(-c3ccccc3)nn1-c1ccccc1)C2=O	62 to 76
CCOCCn1c(CCl)nc2ccccc21	75.5 to 77
FC(F)(F)c1c[nH]c(-c2ccc(OCC3CO3)cc2)n1 (stereo unspecified)	152 to 154
CCOC(=O)C1=C(C)NC(c2cscn2)=NC1c1cccc(F)c1 (stereo unspecified)	118 to 120
CC(C)(C)c1ccc(/C=C/CO[Si](C)(C)C(C)(C)C)cc1[N+](=O)[O-]	33 to 34
CON=C(C1=Nc2ccc(Cl)cc2C(c2ccccc2F)=NC1)[N+](=O)[O-]	130 to 133
C=CCC(C(=O)N1C(=O)OCC1Cc1ccccc1)c1ccc(F)cc1 (stereo unspecified)	103 to 104
CCOC(=O)c1cc(Cl)nc(Cl)n1	31.6
CCCCC(=O)C(C)(C)N1COC(C)=C(c2ccccc2)C1=O	157 to 158
CCOC(=O)c1cc2cc([N+](=O)[O-])cc(C)c2o1	125 to 126
Cc1c(Cl)cc(-c2ccc(=O)[nH]n2)cc1Br	247 to 250
Cn1cc(C2=C(c3c4n(c5ccccc35)CCC(C#N)C4)C(=O)OC2=O)c2ccccc21 (stereo unspecified)	309 to 311
CN1CCN(C2=Nc3ccccc3Oc3sc(Br)cc32)CC1	150 to 151
CCOC(=O)Cc1ccc2c(c1)CC(NC(C)=O)C2 (stereo unspecified)	82 to 84
Cc1ccc(C)c(OCCCC(C)(C)C(=O)Nc2ccc3c(c2)OCO3)c1	89 to 90
CCC(C)(C)NC1=NS(=O)(=O)c2sc(Cl)cc2N1	359 to 360
CCC(=O)OC(C)(CC)c1nc2c(C(F)(F)F)cccc2c(O)c1C(=O)Nc1ccccn1 (stereo unspecified)	192
CC(C)CNC(=O)c1ccc(C2(F)CC2c2ccc(Cl)cc2)cc1 (stereo unspecified)	140
COc1ccc(C=O)c(O[Si](C)(C)C(C)(C)C)c1O[Si](C)(C)C(C)(C)C	74 to 75
C=CCOc1ccc2c(c1)c(-c1cc3cccnc3n1S(=O)(=O)c1ccc(C)cc1)cn2C	257 to 259
C=C(C(=O)OCC)c1cccc(-c2cc3c(cc2C)C(C)(C)CCC3(C)C)c1	70 to 72
CC(C)(C)N(NC(=O)c1ccccn1)C(=O)c1ccccc1[N+](=O)[O-]	137 to 140

SMILES	melting point [°C]
CCOC(=O)c1cc2c(o1)CNCC2(O)c1ccc(C)cc1 (stereo unspecified)	194 to 196
CC1(C)OC(=O)Nc2ccc(-c3ccc(F)c(F)c3)cc21	207 to 208
COc1cccc(CC2CCCc3cc(OCc4ccccc4)c(OC)cc3N2)c1 (stereo unspecified)	92 to 93
CCN(CC)C(=O)c1ccc2ccccc2c1-c1ccc2ccccc2c1	159 to 161
Clc1ccc2c(C3=CCN(CCC4CCc5ccccc54)CC3)c[nH]c2c1 (stereo unspecified)	181 to 183
CCc1cc(-c2cccnc2)nn1-c1ccc(NC(=O)c2cc3ccccc3n2C)cc1	178 to 179
Cc1ccc2cccc(OCc3c(Cl)ccc(OCCN)c3Cl)c2n1	123 to 125
Cc1cn(C2(C(=O)N(C)C)CCCC2)nc1-c1ccccc1	99 to 101
CN(C)CCNc1ccc(NCCN(CCO)CCO)c2c1C(=O)c1c(O)ccc(O)c1C2=O	204 to 205
CN1CC2c3cccn3Cc3ccc(Cl)cc3N2C(=O)C1=O (stereo unspecified)	203
COc1ccc(C(=O)N2CCc3cc(OCc4ccccc4)c(OC)cc3C2)cc1	126 to 127
NC(=O)NN(C(=O)c1ccccc1)c1ccccn1	206
CC1(C)c2ccc(C(O)CN3CCN(c4n[nH]c5ccccc45)CC3)cc2C(C)(C)C1O (stereo unspecified)	104 to 110
COCC1=C(C)C(=O)C(OC)=C(OC)C1=O	31 to 36
CC(C)Oc1c(F)cc2c(O)c(C(=O)NCc3ccc(Cl)cc3)cnc2c1F	207 to 209
Nc1nc(CCl)cc(OCC(F)(F)F)n1	77 to 78
CC(C)(C)OC(=O)NC[C@H]1CC[C@H](NC(=O)OCc2ccccc2)CC1	130 to 131
C=C(C(=O)OC)c1ccc2c(=O)c3ccccc3ccc2c1	153 to 156
CC1(C)CCc2c(N3CCCC3)nc3sc4c(NCCc5c[nH]cn5)ncnc4c3c2C1	192 to 193
CC(C)C(CC(O)C(CC1CCCCC1)NC(=O)C(Cc1c[nH]cn1)NC(=O)C(N)Cc1ccccc1)C(O)CN(Cc1ccccn1)C(=O)OCc1ccccc1 (mixture of isomers)	94
